Converted amounts (≈) assume the structure as drawn.
Assays:
[1] = anatomic pathology (histopathology of heart and kidney) in mice; format: in vivo; conditions: CD-1 mice, 20 mg/kg intravenously daily for 9 days, necropsy day 10, microscopic histopathology
Method: Samples of tissues from necropsied mice were formalin-fixed, paraffin-embedded, sectioned, stained with hematoxylin and eosin, and examined microscopically. Histopathologic findings were recorded. These findings were subjectively graded on a scale corresponding to slight, mild, moderate, marked and severe as compared to untreated controls.

Escherichia coli = experiment: in vitro antibacterial evaluation, MIC by broth dilution; format: cell-based; conditions: 18 hours at 35° C.
[2] = tested on: Staphylococcus aureus-SMITH (GC 4543); experiment: acute lethal infection in mice; format: in vivo; conditions: acute lethal infection, female CD-1 mice, intraperitoneal challenge, intravenous 30 min. after infection, 7 day survival
In short: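 Protocol: bacteria suspended in trypticase soy broth or hog gastric mucin injected ip into female CD-1 mice at a level killing untreated controls in 24-48 hr; compound given iv in saline or 5% dextrose 30 min post-challenge; five mice per dose; ED50 derived from pooled 7 day survival of three runs.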

Enterococcus sp. = experiment: in vitro antibacterial evaluation, MIC by broth dilution; format: cell-based; conditions: broth dilution, 18 hours at 35° C.
In short: (§1)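 Broth dilution per NCCLS standard M7-A2 in Muller-Hinton II […], with an inoculum of 5×10^5 CFU/mL and antibiotic spanning 64-0.06 μg/mL. The MIC is the lowest concentration that inhibits growth of the organism.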

Streptococcus sp. = experiment: as above; format: cell-based; conditions: broth dilution, 18 hours at 35° C.
In short: as §1

Staphylococcus sp. = experiment: as above; format: cell-based; conditions: broth dilution, 18 hours at 35° C.
In short: as §1

## COc1ccc2cc(COC3C(CO)OC(OC4C(CO)OC(Oc5ccc(CC6NC(=O)C(C(C)c7ccccc7)NC(=O)CNC(=O)C(CO)NC(=O)C(C(O)C7CNC(=N)N7C7OC(CO)C(O)C(O)C7O)NC(=O)C(C(O)C7CNC(=N)N7)NC6=O)cc5)C(O)C4O)C(O)C3O)ccc2c1 (stereo not drawn) [Example 230a, Cyclo[glycyl-β-methylphenylalanyl-O-[4-O-[4-O-[(6-methoxy-2-naphthyl)methyl]hexopyranosyl]hexopyranosyl]tyrosyl-3-(2-iminoimidazolidin-4-yl)seryl-3-(3-hexopyranosyl-2-iminoimidazolidin-4-yl)serylseryl]]
[1]
  Anatomical Pathology (Day 10), Heart: 0
  Anatomical Pathology (Day 10), Kidney: +
Escherichia coli
  MIC Escherichia coli (ATCC 25922): 32 µg/mL (≈ 21.8 µM)
  MIC Escherichia coli (GC 4559): 32 µg/mL (≈ 21.8 µM)
  MIC Escherichia coli (GC 4560): 0.25 to 1 µg/mL
[2]
  median effective dose (ED50), Staphylococcus aureus-SMITH (GC 4543): 0.06 mg/kg
Enterococcus sp.
  MIC Enterococcus avium (GC 4558): 2 to 4 µg/mL
  MIC Enterococcus faecalis (ATCC 29212): 2 to 4 µg/mL
  MIC Enterococcus faecalis (GC 2242): 2 to 4 µg/mL
  MIC Enterococcus faecalis (GC 2691): 2 to 4 µg/mL
  MIC Enterococcus faecalis (GC 3059): 2 to 4 µg/mL
  MIC Enterococcus faecalis (GC 4552): 2 to 4 µg/mL
  MIC Enterococcus faecalis (GC 4553): 2 to 4 µg/mL
  MIC Enterococcus faecalis (GC 4554): 2 to 4 µg/mL
  MIC Enterococcus faecalis (GC 6189): 1 to 4 µg/mL
  MIC Enterococcus faecium (GC 2243): 2 to 4 µg/mL
  MIC Enterococcus faecium (GC 4556): 2 to 4 µg/mL
  MIC Enterococcus faecium (GC 4557): 1 to 2 µg/mL
Enterococcus sp.; inoculum 5×10^5 CFU/mL, strain ATCC 29212
  MIC Enterococcus faecalis (ATCC 29212): 2 to 4 µg/mL
Enterococcus sp.; inoculum 5×10^5 CFU/mL, strain GC 2242
  MIC Enterococcus faecalis (GC 2242): 2 to 4 µg/mL
Enterococcus sp.; inoculum 5×10^5 CFU/mL, strain GC 2243
  MIC Enterococcus faecium (GC 2243): 2 to 4 µg/mL
Enterococcus sp.; inoculum 5×10^5 CFU/mL, strain GC 2691
  MIC Enterococcus faecalis (GC 2691): 2 to 4 µg/mL
Enterococcus sp.; inoculum 5×10^5 CFU/mL, strain GC 3059
  MIC Enterococcus faecalis (GC 3059): 2 to 4 µg/mL
Enterococcus sp.; inoculum 5×10^5 CFU/mL, strain GC 4552
  MIC Enterococcus faecalis (GC 4552): 2 to 4 µg/mL
Enterococcus sp.; inoculum 5×10^5 CFU/mL, strain GC 4553
  MIC Enterococcus faecalis (GC 4553): 2 to 4 µg/mL
Enterococcus sp.; inoculum 5×10^5 CFU/mL, strain GC 4554
  MIC Enterococcus faecalis (GC 4554): 2 to 4 µg/mL
Enterococcus sp.; inoculum 5×10^5 CFU/mL, strain GC 4556
  MIC Enterococcus faecium (GC 4556): 2 to 4 µg/mL
Enterococcus sp.; inoculum 5×10^5 CFU/mL, strain GC 4557
  MIC Enterococcus faecium (GC 4557): 1 to 2 µg/mL
Enterococcus sp.; inoculum 5×10^5 CFU/mL, strain GC 4558
  MIC Enterococcus avium (GC 4558): 2 to 4 µg/mL
Enterococcus sp.; inoculum 5×10^5 CFU/mL, strain GC 6189
  MIC Enterococcus faecalis (GC 6189): 1 to 4 µg/mL
Streptococcus sp.
  MIC Streptococcus agalactiae (GC 4564): <0.06 to 0.12 µg/mL
  MIC Streptococcus pneumoniae (ATCC 6301): <0.06 µg/mL
  MIC Streptococcus pneumoniae (GC 1894): <0.06 µg/mL
  MIC Streptococcus pneumoniae (GC 4565): <0.06 µg/mL
  MIC Streptococcus pyogenes (GC 4563): <0.06 to 0.25 µg/mL
Streptococcus sp.; inoculum 5×10^5 CFU/mL, strain ATCC 6301
  MIC Streptococcus pneumoniae (ATCC 6301): <0.06 µg/mL
Streptococcus sp.; inoculum 5×10^5 CFU/mL, strain GC 1894
  MIC Streptococcus pneumoniae (GC 1894): <0.06 µg/mL
Streptococcus sp.; inoculum 5×10^5 CFU/mL, strain GC 4563
  MIC Streptococcus pyogenes (GC 4563): <0.06 to 0.25 µg/mL
Streptococcus sp.; inoculum 5×10^5 CFU/mL, strain GC 4564
  MIC Streptococcus agalactiae (GC 4564): <0.06 to 0.12 µg/mL
Streptococcus sp.; inoculum 5×10^5 CFU/mL, strain GC 4565
  MIC Streptococcus pneumoniae (GC 4565): <0.06 µg/mL
Staphylococcus sp.
  MIC Coagulase Negative Staphylococcus (GC 4547): 0.5 to 2 µg/mL
  MIC Coagulase Negative Staphylococcus (GC 4548): 0.12 to 0.5 µg/mL
  MIC Coagulase Negative Staphylococcus (GC 4549): 0.12 to 0.5 µg/mL
  MIC Coagulase Negative Staphylococcus (GC 4551): 0.25 to 1 µg/mL
  MIC Coagulase Negative Staphylococcus (GC 6257): 0.25 to 0.5 µg/mL
  MIC Staphylococcus aureus (ATCC 29213): 1 to 2 µg/mL
  MIC Staphylococcus aureus (GC 1131): 0.5 to 2 µg/mL
  MIC Staphylococcus aureus (GC 3051): 1 to 2 µg/mL
  MIC Staphylococcus aureus (GC 3053): 1 to 2 µg/mL
  MIC Staphylococcus aureus (GC 4541): 0.5 to 2 µg/mL
  MIC Staphylococcus aureus (GC 4542): 0.25 to 2 µg/mL
  MIC Staphylococcus aureus (GC 4544): 1 to 2 µg/mL
  MIC Staphylococcus aureus (GC 4545): 0.5 to 1 µg/mL
  MIC Staphylococcus aureus-SMITH (GC 4543): 0.5 to 2 µg/mL
  MIC Staphylococcus haemolyticus (GC 4546): 0.25 to 1 µg/mL
Staphylococcus sp.; strain ATCC 29213
  MIC Staphylococcus aureus (ATCC 29213): 1 to 2 µg/mL
Staphylococcus sp.; strain GC 1131
  MIC Staphylococcus aureus (GC 1131): 0.5 to 2 µg/mL
Staphylococcus sp.; strain GC 3051
  MIC Staphylococcus aureus (GC 3051): 1 to 2 µg/mL
Staphylococcus sp.; strain GC 3053
  MIC Staphylococcus aureus (GC 3053): 1 to 2 µg/mL
Staphylococcus sp.; strain GC 4541
  MIC Staphylococcus aureus (GC 4541): 0.5 to 2 µg/mL
Staphylococcus sp.; strain GC 4542
  MIC Staphylococcus aureus (GC 4542): 0.25 to 2 µg/mL
Staphylococcus sp.; strain GC 4543
  MIC Staphylococcus aureus-SMITH (GC 4543): 0.5 to 2 µg/mL
Staphylococcus sp.; strain GC 4544
  MIC Staphylococcus aureus (GC 4544): 1 to 2 µg/mL
Staphylococcus sp.; strain GC 4545
  MIC Staphylococcus aureus (GC 4545): 0.5 to 1 µg/mL
Staphylococcus sp.; strain GC 4546
  MIC Staphylococcus haemolyticus (GC 4546): 0.25 to 1 µg/mL
Staphylococcus sp.; strain GC 4547
  MIC Coagulase Negative Staphylococcus (GC 4547): 0.5 to 2 µg/mL
Staphylococcus sp.; strain GC 4548
  MIC Coagulase Negative Staphylococcus (GC 4548): 0.12 to 0.5 µg/mL
Staphylococcus sp.; strain GC 4549
  MIC Coagulase Negative Staphylococcus (GC 4549): 0.12 to 0.5 µg/mL
Staphylococcus sp.; strain GC 4551
  MIC Coagulase Negative Staphylococcus (GC 4551): 0.25 to 1 µg/mL
Staphylococcus sp.; strain GC 6257
  MIC Coagulase Negative Staphylococcus (GC 6257): 0.25 to 0.5 µg/mL

— patent publication US6914045B2, “Glycopeptide antibiotics” (Wyeth Holdings Corporation, priority 2001, dated 2005)
